Experimental data as given in ChEMBL document CHEMBL4806958, “Anti-cancer/anti-fibrosis compounds” (2020).

Tests used:
[1] = target: Homeodomain-interacting protein kinase 2 (Homo sapiens, UniProt Q9H2X6); test: Inhibition of HIPK2 (unknown origin) using Ser/Thr 09 as substrate incubated for 60 mins in presence of ATP by Z'-Lyte assay
[2] = target: Casein kinase II subunit alpha (Homo sapiens, UniProt P68400); test: Inhibition of CSNK2A1(unknown origin) using Ser/Thr 11 as substrate incubated for 60 mins in presence of ATP by Z'-LYTE assay
Sequence of Casein kinase II subunit alpha (P68400 whole entry): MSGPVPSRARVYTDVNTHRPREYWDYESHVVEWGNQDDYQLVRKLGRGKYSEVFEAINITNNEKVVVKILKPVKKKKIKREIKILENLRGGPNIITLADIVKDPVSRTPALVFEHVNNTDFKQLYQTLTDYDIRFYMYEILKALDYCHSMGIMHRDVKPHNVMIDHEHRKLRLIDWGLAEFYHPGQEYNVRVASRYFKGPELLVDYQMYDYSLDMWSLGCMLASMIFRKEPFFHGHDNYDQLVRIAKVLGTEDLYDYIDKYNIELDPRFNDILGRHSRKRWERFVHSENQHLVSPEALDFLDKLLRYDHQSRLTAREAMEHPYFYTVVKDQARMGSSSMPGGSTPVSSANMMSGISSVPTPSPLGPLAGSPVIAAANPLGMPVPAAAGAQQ

Sequence of Homeodomain-interacting protein kinase 2 (Q9H2X6 whole entry): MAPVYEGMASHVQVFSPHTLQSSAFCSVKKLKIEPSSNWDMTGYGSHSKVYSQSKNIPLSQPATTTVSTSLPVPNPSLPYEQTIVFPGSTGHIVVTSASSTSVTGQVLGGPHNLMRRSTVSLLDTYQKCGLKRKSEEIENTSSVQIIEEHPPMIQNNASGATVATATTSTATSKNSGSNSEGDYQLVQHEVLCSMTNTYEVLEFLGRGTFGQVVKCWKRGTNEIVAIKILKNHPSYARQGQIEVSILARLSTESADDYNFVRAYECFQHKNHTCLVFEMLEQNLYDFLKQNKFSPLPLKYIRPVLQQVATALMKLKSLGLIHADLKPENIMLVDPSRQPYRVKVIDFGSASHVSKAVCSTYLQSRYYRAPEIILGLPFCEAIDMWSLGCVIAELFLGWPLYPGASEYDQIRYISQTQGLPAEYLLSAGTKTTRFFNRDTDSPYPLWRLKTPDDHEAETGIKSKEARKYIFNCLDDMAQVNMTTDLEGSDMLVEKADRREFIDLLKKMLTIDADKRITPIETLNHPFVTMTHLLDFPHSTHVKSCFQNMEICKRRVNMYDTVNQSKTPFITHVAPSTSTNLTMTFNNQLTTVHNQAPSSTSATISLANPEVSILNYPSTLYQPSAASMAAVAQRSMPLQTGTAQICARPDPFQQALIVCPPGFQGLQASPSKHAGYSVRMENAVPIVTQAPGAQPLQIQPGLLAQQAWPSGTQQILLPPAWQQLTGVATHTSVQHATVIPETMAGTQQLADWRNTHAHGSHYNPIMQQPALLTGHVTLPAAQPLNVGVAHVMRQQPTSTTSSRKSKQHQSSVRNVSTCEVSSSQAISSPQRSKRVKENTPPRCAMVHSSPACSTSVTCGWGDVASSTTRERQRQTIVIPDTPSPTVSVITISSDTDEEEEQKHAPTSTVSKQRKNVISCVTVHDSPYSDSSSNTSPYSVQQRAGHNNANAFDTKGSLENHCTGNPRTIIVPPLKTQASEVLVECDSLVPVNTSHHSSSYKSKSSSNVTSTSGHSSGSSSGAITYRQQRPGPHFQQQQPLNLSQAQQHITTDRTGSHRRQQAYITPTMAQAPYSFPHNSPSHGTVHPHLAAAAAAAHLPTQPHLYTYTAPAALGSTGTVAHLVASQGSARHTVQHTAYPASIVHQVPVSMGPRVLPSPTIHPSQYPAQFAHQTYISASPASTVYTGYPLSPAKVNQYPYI

| IC50 [1] | IC50 [2] | Structure (SMILES) |
| --- | --- | --- |
| > 5000 nM | – | O=C(O)c1ccc2c(c1)cc(Br)c1cc(Cl)ncc12 |
| – | < 300 nM | O=C(O)c1ccc2c(c1)cc(Nc1cccc(Cl)c1)c1ccncc12 |
| – | < 300 nM | O=C(O)c1ccc2c(c1)cc(-c1ccncc1)c1ccncc12 |
| – | < 300 nM | O=C(O)c1ccc2c(c1)cc(NC1CCC1)c1ccncc12 |
| – | < 300 nM | CC[C@H](C)Nc1cc2cc(C(=O)O)ccc2c2cnccc12 |
| – | < 300 nM | O=C(O)c1ccc2c(ccc3ccnc(Cl)c32)c1 |
| – | < 300 nM | CC(C)Nc1cc2cc(C(=O)O)ccc2c2cnccc12 |
